Measurements: patent US20070160981A1 (priority 2005, published 2007)
Where two headings read alike, the source gives them in different places.

Experiments:
[1] = target: T1, SARS-CoV PLP2 (Severe acute respiratory syndrome coronavirus, UniProt P0C6U8); type: biochemical
[2] = target: T1, SARS-CoV PLP2

O=NN(CCCl)C(=O)NCCCl [Carmustine]
found in the screen for inhibitor of SARS-CoV PLP2 [1]: found

cystatin
effective in inhibiting SARS-CoV PLP2 [1]: none of them was effective

[Co] [Co]
effects on the activity of SARS-CoV PLP2 [1]: no effects

S=C([S-])N(Cc1ccccc1)Cc1ccccc1.S=C([S-])N(Cc1ccccc1)Cc1ccccc1.[Zn+2] [Dibenzyl dithiocarbamic Zn]
inhibition of SARS-CoV PLP2, in words [1]: effective in inhibiting

[Ca] [Ca]
effects on the activity of SARS-CoV PLP2 [1]: no effects

VFRLKGGAPIK
Cleavage % 2 hours ([2]; pH 6.8): 52.9 ± 3.5%
Cleavage % 12 hours ([2]; pH 6.8): 100 ± 0.0%

NVFRLKGGAPIKGVTF [N V F R L K G G A P I K G V T F]
Cleavage % 2 hours [2]: 63.0 ± 1.4%
Cleavage % 12 hours [2]: 100 ± 0.0%

CCN(C(=S)[S-])c1ccccc1.CCN(C(=S)[S-])c1ccccc1.[Zn+2] [N-ethyl-N-phenyldithiocarbamic acid Zn]
inhibition of SARS-CoV PLP2, in words [1]: effective in inhibiting

[Mn] [Mn]
effects on the activity of SARS-CoV PLP2 [1]: no effects

FRLKGGAPIKGV
Cleavage % 2 h [2]: 70.1 ± 7.4%
Cleavage % 2 hours [2]: 70 ± 7%
Cleavage % 12 h [2]: 100 ± 0.0%
Cleavage % 12 hours [2]: 100%
percentage of the cleavage after 2 hours of digestion [2]: 70%
percentage of the cleavage after 12 hours of digestion [2]: 100%
Cleavage % 2 hours ([2]; pH 6.8): 70.1 ± 7.4%
Cleavage % 12 hours ([2]; pH 6.8): 100 ± 0.0%

FRLKGGAPI [FRLKGG-API]
percentage of the cleavage after 2 hours of digestion [2]: 36%
percentage of the cleavage after 12 hours of digestion [2]: 85%
Cleavage % 2 hours ([2]; pH 6.8): 36.2 ± 6.4%
Cleavage % 12 hours ([2]; pH 6.8): 85.1 ± 4.9%

FRLKGGAPIK [FRLKGG-APIK]
percentage of the cleavage after 2 hours of digestion [2]: 50%
percentage of the cleavage after 12 hours of digestion [2]: 100%
Cleavage % 2 hours ([2]; pH 6.8): 49.9 ± 2.6%
Cleavage % 12 hours ([2]; pH 6.8): 100 ± 0.0%

LKGGAPIK
percentage of the cleavage after 2 hours of digestion [2]: 11%
percentage of the cleavage after 12 hours of digestion [2]: 45%
Cleavage % 2 hours ([2]; pH 6.8): 11.4 ± 4.3%
Cleavage % 12 hours ([2]; pH 6.8): 44.7 ± 3.5%

CCN1C(=O)C=CC1=O [N-ethylmaleimide]
effective in inhibiting SARS-CoV PLP2 ([1]; 1 mM): effective

ISLKGGKIVSTC [Gly2740-Lys2741]
Cleavage % 2 hours [2]: 7 ± 1%
Cleavage % 12 hours [2]: 29 ± 4%
percentage of the cleavage after 2 hours of digestion [2]: 7%
percentage of the cleavage after 12 hours of digestion [2]: 29%

[Zn+2] [Zinc ion]
IC50 [1]: 1300 nM

VFRLKGGAPIKGVT [V F R L K G G A P I K G V T]
Cleavage % 2 hours ([2]; pH 6.8): 67.6 ± 9.0%
Cleavage % 12 hours ([2]; pH 6.8): 100 ± 0.0%

[Mg] [Mg]
effects on the activity of SARS-CoV PLP2 [1]: no effects

RLKGGAPIKG [RLKGG-APIKG]
percentage of the cleavage after 12 hours of digestion [2]: 56%
Cleavage % 2 hours ([2]; pH 6.8): 14.8 ± 4.1%
Cleavage % 12 hours ([2]; pH 6.8): 56.4 ± 5.6%

NNVFRLKGGAPIKGVTFG [N N V F R L K G G A P I K G V T F G]
Cleavage % 2 hours [2]: 60.5 ± 0.7%
Cleavage % 12 hours [2]: 100 ± 0.0%

Sc1ncnc2nc[nH]c12 [6-mercaptopurine]
found in the screen for inhibitor of SARS-CoV PLP2 [1]: found

[Ni] [Ni]
effects on the activity of SARS-CoV PLP2 [1]: no effects

[O-]n1ccccc1=S.[O-]n1ccccc1=S.[Zn+2] [hydroxypridine-2-thione Zn]
inhibition of SARS-CoV PLP2, in words [1]: effective in inhibiting

Cn1cnc([N+](=O)[O-])c1Sc1ncnc2nc[nH]c12 [Azathioprine]
found in the screen for inhibitor of SARS-CoV PLP2 [1]: found

O=C([O-])c1ccccc1-c1c2cc(Br)c(=O)cc-2oc2[c]([Hg+])c([O-])c(Br)cc12.[Na+].[Na+].[OH-] [Merbromin]
found in the screen for inhibitor of SARS-CoV PLP2 [1]: found

CC(C)C[C@H](NC(=O)[C@@H](NC(=O)N[C@@H](Cc1ccccc1)C(=O)O)[C@@H]1CCN=C(N)N1)C(=O)N[C@H](C=O)Cc1ccccc1 [chymostatin]
effective in inhibiting SARS-CoV PLP2 ([1]; 1 mM): none of them was effective

Nc1nc(S)c2[nH]cnc2n1 [2-amino-6-mercaptopurine]
found in the screen for inhibitor of SARS-CoV PLP2 [1]: found

CN(C)C(=S)SSC(=S)N(C)C [Thiram]
found in the screen for inhibitor of SARS-CoV PLP2 [1]: found

CC(=O)N[C@@H](CC(C)C)C(=O)N[C@@H](CC(C)C)C(=O)N[C@H](C=O)CCCNC(=N)N [leupeptin]
effective in inhibiting SARS-CoV PLP2 ([1]; 0.1 mM): none of them was effective
